Measured values reported in PMC12905488, “De novo cyclic peptides allow visualisation of the monomeric and functional amyloid conformations of the kinase RIPK3” (Biochemical Journal, 2026).
Where a SMILES comes first, the peptide text is derived from it. Bridges are numbered along the chain shown (N, C = ends).

Experiments:
[1] = Turbidity assay (absorbance at 350 nm); type: physicochemical; conditions: qualitative, tetra-lysine-tagged compared with K* peptide
Procedure: Solutions with appropriate buffering agent at pH 4.0–8.0 as specified, NaCl as required and containing 40 μM ThT were prepared in Corning^TM black clear bottom 96-well plates (cat no. 3631). Peptides and proteins were diluted from concentrated stocks into buffer immediately prior to measurement. […] Plates were sealed with optically clear sealing film (Corning^TM, cat no. 6575) and loaded into a BMG POLARstar Omega microplate reader maintained at RT or 37 °C. Plates were shaken for 30 s at 700 rpm before first read (unless otherwise specified), and wells were excited at 440 nm, with fluorescence emission measured at 480 nm (filters +/– 10 nm). The gain was set at 1–5% from a buffer and ThT-containing sample. Assays were continued until fluorescence emission plateaued. Turbidity assays were performed concurrently to ThT assays, with absorbance at 350 nm measured after ThT emission measurement.

[2] = tested on: HT-29 cells; test: Confocal imaging of labelled peptides in fixed, permeabilised HT-29 cells; type: cell-based, human; conditions: 10 nM labelled peptide, 30 min, cells untreated (DMSO), apoptosis (TNF + BV-6) or necroptosis (TSZ), 6 h, washed
Procedure: HT-29 cells grown in TC treated T175 flasks (Corning^TM) were aspirated, washed once with RT DPBS then trypsinised with 0.3 vol warmed trypsin EDTA for 3–5 min at 37 °C twice. Trypsin was quenched with 0.7 vol warmed D10 and then the mixture was centrifuged 400×g at RT for 5 min. Supernatant was discarded, then cells were resuspended in warm supplemented DMEM. A small sample was diluted 1:10 in trypan blue and loaded onto a haemocytometer for cell counting, then the cell suspension was diluted in warmed DMEM to 8.5 × 10^4 cells/ml. Cells were seeded onto a 96-well clear bottom PhenoPlate (Revvity) coated in a collagen I matrix at 1.7 × 10^4 cells/well and incubated at 37 °C in 5% CO2 overnight.
CellTracker^TM Orange CMRA (Invitrogen) was diluted to 5 μM in DMEM and warmed to 37 °C. HT-29 cells were washed once in DPBS, then CellTracker^TM Orange (50 μl) was added to each well (excluding wells to be incubated with Alexa Fluor 594-labelled control peptide) and incubated at 37 °C in 5% CO2 for 45 min. Following incubation, CellTracker^TM Orange solution was aspirated and replaced with 150 μl D10. […]
Imaging was performed on an Opera Phenix (PerkinElmer) at 63X magnification (water immersion) in confocal mode using the parameters given below. […] Intensity thresholds were adjusted as indicated to remove background fluorescence based on control wells for image exports. […] Cell counts were identified using DAPI stain (Method C) and cytoplasm identified by CellTracker^TM Orange stain (Method B), and all subsequent analysis was conducted on Cy5 fluorescence detected within cells as determined by these parameters. Total Cy5 intensity analysis, as well as spot analysis (spots detected using Method B), was performed measuring number of detected spots, mean spot size (px^2) and spot fluorescence intensity (corrected and relative). […] Statistical significance between untreated, apoptosis and necroptosis induced conditions and between no peptide controls was determined by 2-way ANOVA testing using Tukey’s multiple comparisons tests.

| SMILES | solubility [1] | presence/binding of labelled peptide in fixed, permeabilised cells [2] |
| --- | --- | --- |
| CC(C)C[C@H](NC(=O)[C@H](C)NC(=O)[C@H](Cc1ccc(O)cc1)NC(=O)[C@H](Cc1ccccc1)NC(=O)[C@H](CCCNC(=N)N)NC(=O)[C@H](CCCCN)NC(=O)[C@H](C)NC(=O)[C@H](CCCNC(=N)N)NC(=O)[C@H](CC(C)C)NC(=O)[C@@H](NC(=O)[C@@H]1CSCC(=O)N[C@@H](Cc2ccc(O)cc2)C(=O)N[C@@H](C(C)C)C(=O)N[C@@H](CC(C)C)C(=O)N1)[C@@H](C)O)C(=O)N[C@@H](Cc1ccccc1)C(=O)N[C@@H](CC(C)C)C(=O)N[C@@H](CO)C(=O)NCC(=O)N[C@@H](CCCCN)C(=O)N[C@@H](CCCCN)C(=O)N[C@@H](CCCCN)C(=O)N[C@@H](CCCCN)C(=O)O [A1Ktag] ({CH2CO}-YVLCTLRAKRFYALFLSGKKKK-OH; thioether N-4; C-terminus assumed) | increased solubility | observed inside all cells |
| CC[C@H](C)[C@@H]1NC(=O)[C@H](Cc2ccc(O)cc2)NC(=O)[C@H](CCCNC(=N)N)NC(=O)[C@H](CO)NC(=O)[C@H](Cc2c[nH]c3ccccc23)NC(=O)[C@@H]2CCCN2C(=O)[C@H](C(C)C)NC(=O)[C@H](CC(N)=O)NC(=O)[C@H](Cc2ccccc2)NC(=O)[C@H](Cc2ccc(O)cc2)NC(=O)CSC[C@@H](C(=O)NCC(=O)N[C@@H](CCCCN)C(=O)N[C@@H](CCCCN)C(=O)N[C@@H](CCCCN)C(=O)N[C@@H](CCCCN)C(=O)O)NC(=O)[C@H](Cc2ccc(O)cc2)NC(=O)[C@H](Cc2ccc(O)cc2)NC(=O)[C@H](C(C)C)NC(=O)[C@H](CO)NC(=O)[C@H](CC(C)C)NC1=O [A2Ktag] ({CH2CO}-YFNVPWSRYILSVYYCGKKKK-OH; thioether N-16; C-terminus assumed) |  | observed inside all cells |
| CC[C@H](C)[C@@H]1NC(=O)[C@H](Cc2ccc(O)cc2)NC(=O)CSC[C@@H](C(=O)N[C@@H](Cc2c[nH]c3ccccc23)C(=O)N[C@H](C(=O)N[C@@H](Cc2c[nH]c3ccccc23)C(=O)N[C@@H](CC(C)C)C(=O)N[C@@H](CC(C)C)C(=O)N[C@@H](CO)C(=O)NCC(=O)N[C@@H](CCCCN)C(=O)N[C@@H](CCCCN)C(=O)N[C@@H](CCCCN)C(=O)N[C@@H](CCCCN)C(=O)O)C(C)C)NC(=O)[C@H](CCC(N)=O)NC(=O)[C@H](CC(=O)O)NC(=O)[C@H](Cc2ccc(O)cc2)NC(=O)[C@H](Cc2c[nH]c3ccccc23)NC(=O)[C@H](CCCNC(=N)N)NC(=O)[C@H](CC(C)C)NC(=O)[C@H](C(C)C)NC(=O)[C@H](CCC(=O)O)NC1=O [A4Ktag] ({CH2CO}-YIEVLRWYDQCWVWLLSGKKKK-OH; thioether N-11; C-terminus assumed) |  | observed inside all cells |
